This note sets out measurements from patent publication US20230293509A1, “METHOD AND COMPOUND FOR USE, IN TREATING AND/OR PREVENTING NETOSIS” (JUBILANT EPIPAD LLC, priority 2020, published 2023).

Each structure is given as a SMILES string.

Data set [1] deals with Bleomycin (BLM)-induced mice fibrosis. Nature of the data set: Bleomycin induced lung fibrosis model. The data set is classed as in vivo, C57BL/6 male mice. The note with it: 50 mg/kg, PO, BID. From the text: Bleomycin (BLM)-induced mice fibrosis is a well-established animal model used to study pathogenesis of lung fibrosis and to estimate the potential anti-fibrotic agents. C57BL/6 male mice at 6-8 weeks of age were purchased from vivo biotech India (under the license from Taconic). The procedures involving the care and use of animals in the study was reviewed and approved by the Institutional Animal Care and Use Committee (IAEC/JDC/2018-161R) prior to conduct. During the study, the care and use of animals was in accordance with the principles outlined in the Guide for the Care and Use of Laboratory Animals, 8th Edition, 2010 (National Research Council) and every effort was made to minimize suffering. The animals were acclimatized for 7 days prior to experimental use. Mice were caged with free access to food and fresh water in a temperature-controlled room (22° C.-24° C.) on a 12 h light/dark cycle. Pulmonary fibrosis was induced by invasive method in animals using single intra-tracheal administration of 50 μg bleomycin prepared in 50 μL of saline under isoflurane anaesthesia. […] Animals were monitored and evaluated for their body weight loss. […] Fibronectin was measured as a PD biomarker by RT-qPCR and fold change in mRNA level was calculated after normalizing to GAPDH. […] The Modified Ashcroft Index score was determined for the vehicle-treated control mice and the test compound treated mice.

The subject of data set [2] is silica induced lung fibrosis. Nature of the data set: Silica induced pro-fibrotic lung model. The data set is classed as in vivo, C57BL/6 female mice. As to conditions: 50 mg/kg PO, BID, day 7 to 11, comparable to Nintedanib 100 mg/kg, QD. On the procedure:
The instillation of silica into the murine lung results in the development of fibrotic nodules that resemble simple silicotic nodular fibrosis, which develop in humans following some occupational exposures to dust and particulate aerosols. Silica can be delivered to rodents via aerosolization, intratracheal administration or oropharyngeal aspiration. C57BL/6 female mice at an age of 6-8 weeks were instilled with silica particles (2.5 mg/mouse) by non-surgical intratracheal (IT) method. The day of silica instillation was defined as day 0. Test compound was administered twice daily and standard of care was dosed once daily from day 7 to 11 for therapeutic intervention. Animals were monitored and evaluated for their clinical signs and body weight loss. Animals were euthanized on day 11 and the lungs were weighed and biomarkers were analyzed in lung.

A further data set relates to 4T1 cells. Nature of the data set: Murine breast cancer efficacy model, 4T1 allograft. The data set is classed as in vivo, Balb/C female mice. As to conditions: 4T1 bearing mice, oral gavage twice daily for 14 days. On the procedure: (§1) PAD4 is highly expressed in malignant tumours of various cell types, Here, the mouse mammary carcinoma of 4T1 and EMT6 cells were used as an experimental model. Mouse 4T1, and EMT-6, a breast cancer cell line was sourced from American Type Culture Collection (ATCC), USA. Cells were grown according to the product information. To establish allografts, the cells were harvested by trypsinization when they reached around 70 to 80% confluence. After harvesting, Balb/C female mice (7-8 weeks) were implanted with 4T1 (1 million cells/site) and EMT-6 (0.5 million cells/site) subcutaneously in the dorsal right flank of mice using a 1 mL BD syringe attached to a 24-gauge needle. When the tumors became palpable tumor measurement was initiated and at an approximate tumor volume of ˜110 and 93 mm3, respectively. Animals were randomized into different treatment groups keeping tumor volume and the number of animals/group similar across the groups and compound 143 treatment was initiated. […]
(§2) Tumor dimensions (length and breadth) were measured on days 1 (animal randomization based on tumor volume) and thrice weekly thereafter until study termination.
(§3) Tumor volumes were calculated using the formula (b2*1)*0.52 where 1=length, b=breadth (Dusan Djokovic et al., BMC Cancer, 2010, 10:641). […]

The next data set deals with EMT-6 cells. Nature of the data set: Murine breast cancer efficacy model, EMT-6 allograft. As to conditions: EMT-6 bearing mice, oral gavage twice daily for 13 days. The data set is classed as in vivo, Balb/C female mice. On the procedure: as §1, §2, §3
A further data set deals with DSS-induced colitis. Put plainly: Dextran sulfate sodium (DSS) induced colitis model. As to conditions: 1 mg/kg, QD, oral; day 10. The data set is classed as in vivo, C57BL/6 male mice. From the text:
Ulcerative colitis (UC) is an intermittent inflammatory bowel disease of the colonic mucosa, with periods of exacerbated symptoms (the active phase of the disease), and periods that are relatively symptom-free (remission phase of disease). Among various chemical induced colitis models, DSS-induced colitis model is widely used because of its simplicity and many similarities with human ulcerative colitis. C57BL/6 male mice at 6-8 weeks of age were purchased from vivo biotech India (under the license from Taconic). The procedures involving the care and use of animals in the study was reviewed and approved by the Institutional Animal Care and Use Committee (IAEC/JDC/2018-161R) prior to conduct. During the study, the care and use of animals was in accordance with the principles outlined in the Guide for the Care and Use of Laboratory Animals, 8th Edition, 2010 (National Research Council) and every effort was made to minimize suffering. The animals were acclimatized for ˜10 days prior to experimental use. Mice were caged with free access to food and fresh water in a temperature-controlled room (22° C.-24° C.) on a 12 h light/dark cycle. […]

Take `N[C@@H]1CCCN(C(=O)c2cc3c4c(c2)nc(-c2cc5cccc(Cl)c5n2CC2CC2)n4CCO3)C1` [Compound 143, (R)-(3-aminopiperidin-1-yl)(2-(7-chloro-1-(cyclopropylmethyl)-1H-indol-2-yl)-3,4-dihydro-5-oxa-1,2a-diazaacenaphthylen-7-yl)methanone]: the Lung weight result in data set [1] (day 0 to 14, compared with Nintedanib 100 mg/kg, QD) is listed as “reduction in lung weight comparable to standard of care Nintedanib”; in data set [2], “significant decrease”. For the same molecule, the “Fibronectin mRNA in lung (RT-qPCR)” value in data set [1] (day 0 to 14, compared with Nintedanib) is recorded as “stronger reduction of fibronectin mRNA as compared to Nintedanib”. For the same molecule, the “Fibronectin level in lung” value in data set [2] is listed as “significant decrease”. The Body weight changes entry in the data set with 4T1 cells and in the data set with EMT-6 cells was “no significant body weight changes” each time.
Take `CCCCCCCCc1ccc(CCC(N)(CO)CO)cc1` [Fingolimod]: the “Disease reversal (DAI) compared to disease control” value with DSS-induced colitis is given as roughly 58.9%.
